The record followed here is patent publication US20240391941A1, “NAPHTHYRIDINONE DERIVATIVES FOR THE TREATMENT OF A DISEASE OR DISORDER” (Novartis AG, priority 2023, published 2024).

For data set [1], the target named is T1, GIRK1/4 (Homo sapiens, UniProt P48544+P48549).
T1 sequence (P48549 1-501): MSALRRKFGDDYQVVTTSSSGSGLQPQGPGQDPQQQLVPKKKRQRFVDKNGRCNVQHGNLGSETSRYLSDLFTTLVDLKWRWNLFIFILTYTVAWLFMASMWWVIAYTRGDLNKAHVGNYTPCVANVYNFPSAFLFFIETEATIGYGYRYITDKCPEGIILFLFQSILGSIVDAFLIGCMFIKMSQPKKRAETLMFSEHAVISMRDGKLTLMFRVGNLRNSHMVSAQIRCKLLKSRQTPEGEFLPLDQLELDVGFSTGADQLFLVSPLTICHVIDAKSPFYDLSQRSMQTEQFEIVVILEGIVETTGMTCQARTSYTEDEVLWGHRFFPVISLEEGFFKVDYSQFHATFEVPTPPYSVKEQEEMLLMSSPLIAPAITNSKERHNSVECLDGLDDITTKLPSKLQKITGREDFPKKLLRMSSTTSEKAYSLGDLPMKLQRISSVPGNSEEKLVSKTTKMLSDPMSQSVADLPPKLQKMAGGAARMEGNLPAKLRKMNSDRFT
T1 sequence (P48544 1-419): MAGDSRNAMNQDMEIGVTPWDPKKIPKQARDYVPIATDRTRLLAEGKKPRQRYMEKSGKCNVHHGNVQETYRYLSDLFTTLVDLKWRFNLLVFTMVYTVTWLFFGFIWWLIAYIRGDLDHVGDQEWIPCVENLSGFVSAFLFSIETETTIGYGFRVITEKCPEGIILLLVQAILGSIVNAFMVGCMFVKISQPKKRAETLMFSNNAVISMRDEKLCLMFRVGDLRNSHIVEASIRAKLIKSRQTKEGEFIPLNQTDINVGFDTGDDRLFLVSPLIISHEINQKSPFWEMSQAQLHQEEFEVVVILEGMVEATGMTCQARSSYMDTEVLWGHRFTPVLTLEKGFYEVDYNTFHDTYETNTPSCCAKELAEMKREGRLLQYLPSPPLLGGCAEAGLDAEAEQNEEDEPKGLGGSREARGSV
Description: GIRK1/4 in vitro activity assay (IonWorks Quattro population patch clamp). Type of data set: cell-based. The settings on record: GIRK 1/4 HEK293 stable cells, inward potassium current; read-out: inhibitory activity (IC50). The method, then: The GIRK1/4 activity of the parent compounds formed after cleavage upon hydrolysis of the phosphoric acid ester group of the compounds according to the present disclosure was assessed by the following in vitro method.
• a. External buffer: 10 mM NaCl, 50 mM Na Gluconate, 80 mM K Gluconate, 1.8 mM CaCl2, 1 mM MgCl2, 10 mM HEPES, 10 mM Glucose, pH 7.4; osmolarity […]. • b. Internal buffer: 30 mM KCl, 100 mM K Gluconate, 1 mM MgCl2, 10 mM HEPES, 1 mM EGTA, 10 mM NaCl, pH 7.2; osmolarity […].
• c. Prepare seven-fold compound dilution series (10 mM to 20 μM) in 100% DMSO, in 384-well polypropylene plates. • d. Propafenone (Sigma Aldrich, catalog number P4670) was used as a positive control and DMSO for neutral control. • e. Resuspend 1 μl of compounds in DMSO into 66.7 μl external buffer in 384-well polypropylene plate and load into Plate 1 section of Molecular Devices Quattro.
• f. […]
Quattro was controlled using IonWorks v2 software to perform the following steps: • p. […] Measured magnitude of inward potassium current at time point between 1200-1220 ms from start of Pulse 1 (i.e. during the voltage ramp phase). • t. […]
IC50 values were calculated by plotting the percentage of current inhibition (normalized to the DMSO-only control) as a function of compound concentration using standard data analysis software.
A general note: In patch-clamp work, channel activity is measured electrically.

Data set [2] can be described thus: In vitro conversion of pro-drug to parent compound by intestinal S9 fraction (human). It counts as in vitro ADME. The settings on record: pooled intestinal S9 fraction, 37° C., read-out: T1/2 of conversion to the parent compound. The method, then: (§1) Drug stock solutions (100 μM) were prepared in methanol by two subsequent 1:10 dilutions from 10 mM DMSO drug solutions.
(§2) Frozen pooled intestinal S9 fractions (final protein concentration 2 mg/mL), alamethicin (25 μg/mg). 0.IM phosphate buffer containing 1 mM magnesium chloride and NADPH (final concentration 1 mM) plus UDPGA (final concentration 3.5 mM) are pre incubated at 37° C. prior to the addition of test compound (final substrate concentration 1 μM; final DMSO concentration 0.25%) to initiate the reaction. An additional incubation is performed in the absence of cofactors (NADPH, UDPGA).
(§3) Incubation plate was incubated on a shaker with temperature controlled at 37° C. Sequential samples were removed at designated timepoints (0, 5, 15, 30, 60 and 120 mins) and quenched with 4 volumes of ice-cold acetonitrile (containing internal standard glyburide). At the end of the incubation, samples plates were centrifuged, and supernatants reconstituted in water. Samples were then analyzed by LC/MS to assess parent depletion.
(§4) A ratio of compound peak area/internal standard peak area for each time point is generated and subsequently expressed as % of the response at time 0. The percentage stability of a compound in intestinal S9 solution at time t is calculated as detailed in Equation 1: […]
(§5) The half-life (t1/2) is calculated using the Equation 2: […]

Data set [3] is described as follows: In vitro conversion of pro-drug to parent compound by intestinal S9 fraction (rat). Type of data set: in vitro ADME. The settings on record: Sprague-Dawley, pooled intestinal S9 fraction, 37° C., read-out: T1/2 of conversion to the parent compound. The method, then: as §1, §2, §3, §4, §5
Data set [4] can be described thus: In vitro conversion of pro-drug to parent compound by intestinal S9 fraction (dog). It counts as in vitro ADME. The following applies: beagle, pooled intestinal S9 fraction, 37° C., read-out: T1/2 of conversion to the parent compound. The method, then: as §1, §2, §3, §4, §5

As a reminder, the IC50 is the point on the concentration scale where inhibition reaches its midpoint. On to `CNC(=O)[C@H](COc1ncc(Cl)c2c1c(=O)cc(C)n2-c1c(Cl)cc(OCCO)cc1Cl)OP(=O)(O)O` [Example 2, (S)-3-((8-chloro-1-(2,6-dichloro-4-(2-hydroxyethoxy)phenyl)-2-methyl-4-oxo-1,4-dihydro-1,6-naphthyridin-5-yl)oxy)-1-(methylamino)-1-oxopropan-2-yl dihydrogen phosphate], for which, in data set [1], the IC50 is > 10 µM.

On to `CNC(=O)[C@@H](O)COc1ncc(Cl)c2c1c(=O)cc(C)n2-c1c(Cl)cc(OCCOP(=O)(O)O)cc1Cl` [Example 1, (S)-2-(3,5-dichloro-4-(8-chloro-5-(2-hydroxy-3-(methylamino)-3-oxopropoxy)-2-methyl-4-oxo-1,6-naphthyridin-1 (4H)-yl)phenoxy)ethyl dihydrogen phosphate], for which the IC50 in data set [1] was > 10 µM.

For the compound `CNC(=O)[C@@H](O)COc1ncc(Cl)c2c1c(=O)cc(C)n2-c1c(Cl)cc(OCCOP(=O)(O)O)cc1Cl.[Ca]` [Example 1a, (S)-2-(3,5-dichloro-4-(8-chloro-5-(2-hydroxy-3-(methylamino)-3-oxopropoxy)-2-methyl-4-oxo-1,6-naphthyridin-1(4H)-yl)phenoxy)ethyl dihydrogen phosphate calcium salt], the half-life at 1 μM in data set [2] (human intestinal S9, + cofactor (NADPH, UDPGA)) came to 88.7 min; in data set [2] (human intestinal S9, − cofactor), 86.7 min; in data set [3] (rat intestinal S9, + cofactor (NADPH, UDPGA)) it was 14.4 min; in data set [3] (rat intestinal S9, − cofactor), 16.5 min; in data set [4] (dog intestinal S9, + cofactor (NADPH, UDPGA)) it was 45.3 min; in data set [4] (dog intestinal S9, − cofactor), 46 min.
